Source: patent US7348357B2, “Arylamides” (Bayer HealthCare AG, priority 2002, dated 2008)
In brackets after ≈: the same amount, converted by molar mass.

What was measured:
[1] = test system: Haemophilus influenzae Spain 7; assay: Minimum inhibitory concentration (MIC), liquid dilution test; format: cell-based; conditions: BHI broth plus 20% bovine serum, 10 μg/ml hemin and 1% Isovitale, 37° C., 18-24 hours, 8-10% CO2, lowest concentration with no visible bacterial growth
Method: (§1) Determination of the Minimum Inhibitory Concentration (MIC): The MIC is determined in a liquid dilution test. Overnight cultures of the test organisms are diluted to a cell count of 10^5 organisms per ml in Isosensitest medium (Difco, Irvine, USA) and are incubated with dilutions of the test substances (1:2 dilution stages). Exceptions are the tests with S. pneumoniae […], which are conducted in BHI broth (Difco) plus 20% bovine serum, and with H. influenzae, which are conducted in BHI broth (Difco) plus 20% bovine serum, 10 μg/ml hemin and 1% Isovitale (Becton Dickinson, New Jersey, USA). The cultures are incubated at 37° C. for 18-24 hours; S. pneumoniae and H. influenzae in the presence of 8-10% CO2. The lowest concentration of each substance at which there is no longer any visible bacterial growth is defined as the MIC. The MICs in μmol/l of some compounds of the invention against a series of test organisms are listed by way of example in the table below.

[2] = test system: Staphylococcus aureus 133; assay: as above; format: cell-based; conditions: Isosensitest medium, 10^5 organisms per ml, 37° C., 18-24 hours, lowest concentration with no visible bacterial growth
Method: as §1

bacteria = conditions: described in the literature (J. Am. Chem. Soc. 1987, J. Org. Chem. 1994, J. Antibiot. 1997); cited from earlier work

Row | Compound | MIC Haemophilus influenzae Spain 7 [1] [µM] | MIC [2] [µM] | antibacterial activity (bacteria)
1 | CC(C)[C@H](NC(=O)C[C@H](NC(=O)c1cccc(F)n1)c1ccccc1)C(=O)[C@@H]1C(=O)NC(=O)[C@H]1C [Example 2, 6-Fluoro-N-{(1S)-3-[((1S)-2-methyl-1-{[(3R,4S)-4-methyl-2,5-dioxo-3-pyrrolidinyl]-carbonyl}propyl)amino]-3-oxo-1-phenylpropyl}-2-pyridinecarboxamide] | 7.81 | 15.6 (≈ 7.54 µg/mL) | –
2 | C[C@@H]1C(=O)NC(=O)[C@H]1C(=O)C(NC(=O)C[C@H](NC(=O)c1ccccn1)c1ccccc1)C1CCCC1 (stereo partly drawn) [Example 9, N-[(1S)-3-({1-Cyclopentyl-2-[(3R,4S)-4-methyl-2,5-dioxo-3-pyrrolidinyl]-2-oxoethyl}amino)-3-oxo-1-phenylpropyl]-2-pyridinecarboxamide] | 62.5 | 7.81 (≈ 3.83 µg/mL) | –
3 | CC(C)[C@H](NC(=O)C[C@H](NC(=O)c1cc(-c2ccccc2)ccn1)c1ccccc1)C(=O)[C@@H]1C(=O)NC(=O)[C@H]1C [Example 6, N-{(1S)-3-[((1S)-2-Methyl-1-{[(3R,4S)4-methyl-2,5-dioxo-3-pyrrolidinyl]-carbonyl}propyl)amino]-3-oxo-1-phenylpropyl}-4-phenyl-2-pyridinecarboxamide] | 15.63 | 7.81 (≈ 4.22 µg/mL) | –
4 | C/C=C/C=C/C=C/C(=O)N[C@@H](CC(=O)N[C@H](C(=O)[C@@H]1C(=O)NC(=O)[C@H]1C)C(C)C)c1ccccc1 [andrimid] | – | – | having antibacterial activity
5 | C/C=C/C=C/C(=O)N[C@@H](CC(=O)N[C@H](C(=O)[C@@H]1C(=O)NC(=O)[C@H]1C)C(C)C)c1ccccc1 [moiramide B] | – | – | having antibacterial activity
6 | COc1ccc(CC(=O)N[C@@H](CC(=O)N[C@H](C(=O)[C@@H]2C(=O)NC(=O)[C@H]2C)C(C)C)c2ccccc2)c(Cl)c1Cl [Example 109] | 62.5 | 0.98 (≈ 0.565 µg/mL) | –
7 | C[C@@H]1C(=O)NC(=O)[C@H]1C(=O)[C@@H](NC(=O)C[C@H](NC(=O)c1cc2cc(F)ccc2[nH]1)c1ccccc1)C1CCCC1 [Example 48, N-[(1S)-3-({(1S)-1-Cyclopentyl-2-[(3R,4S)4-methyl-2,5-dioxo-3-pyrrolidinyl]-2-oxoethyl}amino)-3-oxo-1-phenylpropyl]-5-fluoro-1 H-indole-2-carboxamide] | 15.63 | 0.98 (≈ 0.536 µg/mL) | –
8 | C/C=C/C=C/C=C/C(=O)N[C@@H](CC(=O)N[C@H](C(=O)[C@@]1(O)C(=O)NC(=O)[C@H]1C)C(C)C)c1ccccc1 [moiramide C] | – | – | inactive
